# Square brackets hold non-standard residues; d marks the D form. Ends that are not written are not given here. Met(O) = CS(=O)CC[C@H](N)C(=O)O
# Tested on: mouse ADAMTS7
# Assay: TMT10 TAILS N-terminomics, HUVEC experiment (process replicates, trypsin/AspN digest)
# Format: cell-based, human
# Settings: HUVEC TAILS HC; log fold change of N-terminal peptide, Ad-mADAMTS7 WT over EQ
# Procedure, shortened: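 Full-length mouse ADAMTS7 (WT or E373Q mutant, C-terminal 3xFLAG) or luciferase was transduced via adenovirus, 50 MOI, into HCA-SMC (SMC1, SMC2) or HUVEC. SMC1: pooled media, technical triplicates 400 ug; SMC2: process triplicates 300 ug; HUVEC: process triplicates 200 ug, bFGF2 10 ng/ml.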
row,Substance,logFC.mWT.over.mEQ
1,ASMT_321 (LSSAGFR; listed as Homo sapiens),2.56
2,BICD1_280 (NNDDKMNGHIHGPLVKLNGDYR; listed as Homo sapiens),1.31
3,CLU_267 (FQHPPTEFIR; listed as Homo sapiens),1.64
4,CTGF_173 (TVVGPALAAYR; listed as Homo sapiens),3.39
5,CTGF_174 (VVGPALAAYR; listed as Homo sapiens),2.44
6,FN1_1624 (LVQTAVTTIPAPT; listed as Homo sapiens),1.56
7,FN1_1743 (WESPQGQVSR; listed as Homo sapiens),3.05
8,LTBP2_129 (QQQPAPR; listed as Homo sapiens),5.32
9,LTBP2_253 (GEGTLAR; listed as Homo sapiens),2.99
10,LTBP3_164 (LSTGALPPLAPEG; listed as Homo sapiens),2.21
11,LTBP3_205 (HAAFLVPLGPGQISA; listed as Homo sapiens),2.54
12,LTBP3_221 (VQAPPPVVNVR; listed as Homo sapiens),3.11
13,MCFD2_55 (HLEGVINKPEA; listed as Homo sapiens),0.99
14,PSAP_301 (LVEPIKKH; listed as Homo sapiens),2.44
15,PTBP1_376 (AAAAAGR; listed as Homo sapiens),1.06
16,PZP_578 (HAHLQVAAAPQSLCALR; listed as Homo sapiens),2.45
17,THBS1_630 (FGQGVEHATANK; listed as Homo sapiens),2.28
18,UQCRH_76 (HGSPNNSERAMRAVGE[Met(O)]CKGPGAAR; listed as Homo sapiens),1.38
19,ZYX_244 (PVSLANTQPR; listed as Homo sapiens),1.02
